These results are taken from patent publication US9096524B2, “Anthelmintic agents and their use” (Intervet International B.V., priority 2009, dated 2015).

Each structure is given as a SMILES string. Like-named read-outs stand apart in the source and are kept apart here.

In the assay the test system is A. galli (intestinal roundworm of chicken) larval stage 3; O. dentatum (nodular worm of swine) larval stages 3 and 4. Nature of the assay: Activity against Ascaridia galli and Oesophagostomum dentatum larvae in vitro (minimum effective concentration). It counts as cell-based.
Where [1] appears, read: in vitro, one or more of A. galli L3, O. dentatum L3, L4, threshold 7 μM, read-out: MEC (minimum effective concentration) against one or more of the tested nematodes.
[2] abbreviates: in vitro, one or more of A. galli L3, O. dentatum L3, L4, threshold 1 μM, read-out: MEC (minimum effective concentration) against one or more of the tested nematodes.
[3] abbreviates: in vitro, two or more of A. galli L3, O. dentatum L3, L4, threshold 1 μM, read-out: MEC (minimum effective concentration) against two or more of the tested nematodes.
The mark [4] stands for this setting: read-out: MEC (minimum effective concentration) against two or more of the tested nematodes, in vitro, two or more of A. galli L3, O. dentatum L3, L4, threshold 1 μM.

In the case of `CCCc1ccc(C2CCN(CCC(=O)N3CCC(Nc4ccc([N+](=O)[O-])c(OCC)c4)CC3)CC2)cc1` [Example 399], under setting [1], the minimal effective concentration is less than 7 µM. Regarding `CCOc1cc(NC2CCN(C(=O)CCN3CCC(c4ccc(C(C)(C)C)cc4)CC3)CC2)ccc1[N+](=O)[O-]` [Example 400], the minimal effective concentration under setting [2] is less than 1 µM and the minimal effective concentration under setting [1] was less than 7 µM. As for `CCOc1cc(NC2CCN(C(=O)CCN3CCN(c4ccc(C(F)(F)F)cc4)CC3)CC2)ccc1[N+](=O)[O-]` [Example 402], the minimal effective concentration reads like this: under setting [2], less than 1 µM; under setting [1], less than 7 µM; under setting [3], less than 1 µM. For `CCOc1cc(NC2CCN(C(=O)CCN3CCN(c4ccc(Cl)cc4)CC3)CC2)ccc1[N+](=O)[O-]` [Example 405], the minimal effective concentration under setting [1] is less than 7 µM. Still for that read-out and setting: as for `CCOc1cc(NC2CCN(C(=O)CCN3CCN(c4ccc(OCc5ccccc5)cc4)CC3)CC2)ccc1[N+](=O)[O-]` [Example 407], the figure is less than 7 µM. Still for that read-out and setting: as for `CCOc1cc(NC2CCN(C(=O)CCN3CCN(c4ccc(OC)cc4)CC3)CC2)ccc1[N+](=O)[O-]` [Example 408], the figure is less than 7 µM; as for `CCOc1cc(NC2CCN(C(=O)CCN3CCN(c4ccc(Cl)cc4F)CC3)CC2)ccc1[N+](=O)[O-]` [Example 410], less than 7 µM.

As for `O=C(CCN1CCN(c2ccc(Cl)cc2)CC1)N1CCC(Oc2ccc([N+](=O)[O-])c(C(F)(F)F)c2)CC1` [Example 421], the minimal effective concentration under setting [3] was less than 1 µM. `O=C(CCN1CCN(c2ccc(OCc3ccccc3)cc2)CC1)N1CCC(Oc2ccc([N+](=O)[O-])c(C(F)(F)F)c2)CC1` [Example 423]: the minimal effective concentration under setting [3] is less than 1 µM. On the same count and under the same terms, the figure for `COc1ccc(N2CCN(CCC(=O)N3CCC(Oc4ccc([N+](=O)[O-])c(C(F)(F)F)c4)CC3)CC2)cc1OC` [Example 424] is less than 1 µM. On to `O=C(CCN1CCN(c2ccc(Cl)cc2)CC1)N1CCC(Oc2ccc([N+](=O)[O-])c(C(F)(F)F)c2)CC1` [Example 433], for which the minimal effective concentration under setting [2] was less than 1 µM. Regarding `COc1ccc(C2CCN(CCC(=O)N3CCC(Oc4ccc([N+](=O)[O-])c(C(F)(F)F)c4)CC3)CC2)cc1` [Example 435], the minimal effective concentration under setting [3] is less than 1 µM. On to `O=C(CCN1CCC(c2ccc(F)c(F)c2)CC1)N1CCC(Oc2ccc([N+](=O)[O-])c(C(F)(F)F)c2)CC1` [Example 436], for which the minimal effective concentration under setting [3] was less than 1 µM. Still for that read-out and setting: as for `O=C(CCN1CCC(c2ccc(C(F)(F)F)cc2)CC1)N1CCC(Oc2ccc([N+](=O)[O-])c(C(F)(F)F)c2)CC1` [Example 438], the figure is less than 1 µM. Turning to `O=C(CCN1CCC(c2ccc(-c3ccccc3)cc2)CC1)N1CCC(Oc2ccc([N+](=O)[O-])c(C(F)(F)F)c2)CC1` [Example 442], the minimal effective concentration under setting [1] was less than 7 µM.

With `Cn1nnc(-c2ccc(NC3CCN(C(=O)CCN4CCN(c5ccc(Cl)cc5)CC4)CC3)cc2)n1` [Example 445], the minimal effective concentration is, setting by setting: under setting [2], less than 1 µM; under setting [1], less than 7 µM; under setting [3], less than 1 µM. For `CC(C)COc1cc(NC2CCN(C(=O)CCN3CCC(c4ccc(C(C)(C)C)cc4)CC3)CC2)ccc1[N+](=O)[O-]` [Example 457], under setting [1], the minimal effective concentration was less than 7 µM. As for `CC(C)COc1cc(NC2CCN(C(=O)CCN3CCN(c4ccc(C(F)(F)F)cc4)CC3)CC2)ccc1[N+](=O)[O-]` [Example 459], the minimal effective concentration under setting [2] was less than 1 µM and the minimal effective concentration under setting [1] is less than 7 µM. Consider `CC(C)COc1cc(NC2CCN(C(=O)CCN3CCN(c4ccc(F)cc4F)CC3)CC2)ccc1[N+](=O)[O-]` [Example 469], for which, under setting [1], the minimal effective concentration was less than 7 µM. Same read-out and setting: the figure for `COc1cc(OC2CCN(C(=O)CCN3CCN(c4ccc(Cl)cc4F)CC3)CC2)ccc1[N+](=O)[O-]` [Example 476] is less than 7 µM. Same read-out and setting: as for `COc1cc(OC2CCN(C(=O)CCN3CCN(c4ccc(F)cc4F)CC3)CC2)ccc1[N+](=O)[O-]` [Example 477], the figure is less than 7 µM; as for `COc1cc(OC2CCN(C(=O)CCN3CCN(c4ccc(C(F)(F)F)cc4)CC3)CC2)ccc1[N+](=O)[O-]` [Example 479], less than 7 µM.

In the case of `COc1ccc(C2CCN(CCC(=O)N3CCC(Oc4ccc([N+](=O)[O-])c(OC)c4)CC3)CC2)cc1` [Example 484], the minimal effective concentration under setting [2] is less than 1 µM. Same read-out and setting: as for `CCCc1ccc(C2CCN(CCC(=O)N3CCC(Oc4ccc([N+](=O)[O-])c(OC)c4)CC3)CC2)cc1` [Example 489], the figure is less than 1 µM. As to `CCOc1cc(OC2CCN(C(=O)CCN3CCN(c4ccc(OC)c(OC)c4)CC3)CC2)ccc1[N+](=O)[O-]` [Example 495], the minimal effective concentration reads like this: under setting [2], less than 1 µM; under setting [1], less than 7 µM; under setting [3], less than 1 µM. `CCOc1cc(OC2CCN(C(=O)CCN3CCN(c4ccc(OCc5ccc(C(F)(F)F)cc5)cc4)CC3)CC2)ccc1[N+](=O)[O-]` [Example 497]: under setting [1], the minimal effective concentration is less than 7 µM. In the case of `CCOc1cc(OC2CCN(C(=O)CCN3CCN(c4ccc(Cl)cc4F)CC3)CC2)ccc1[N+](=O)[O-]` [Example 498], the minimal effective concentration under setting [1] is less than 7 µM. For `CCOc1cc(OC2CCN(C(=O)CCN3CCN(c4ccc(C(C)(C)C)cc4)CC3)CC2)ccc1[N+](=O)[O-]` [Example 502], the minimal effective concentration is less than 1 µM under setting [2] and less than 7 µM under setting [1]. Consider `CCOc1cc(OC2CCN(C(=O)CCN3CCC(c4ccc(C(C)(C)C)cc4)CC3)CC2)ccc1[N+](=O)[O-]` [Example 509], for which the minimal effective concentration under setting [2] was less than 1 µM. In the case of `CC(C)COc1cc(OC2CCN(C(=O)CCN3CCN(c4ccc(Cl)cc4)CC3)CC2)ccc1[N+](=O)[O-]` [Example 512], the minimal effective concentration under setting [1] is less than 7 µM.

For `COc1ccc(N2CCN(CCC(=O)N3CCC(Oc4ccc([N+](=O)[O-])c(OCC(C)C)c4)CC3)CC2)cc1OC` [Example 515], the minimal effective concentration under setting [1] is less than 7 µM. For the compound `COc1ccc(N2CCN(CCC(=O)N3CCC(Oc4ccc([N+](=O)[O-])c(OCC(C)C)c4)CC3)CC2)cc1` [Example 516], the minimal effective concentration reads like this: under setting [2], less than 1 µM; under setting [1], less than 7 µM. As to `CC(C)COc1cc(OC2CCN(C(=O)CCN3CCN(c4ccc(Cl)cc4F)CC3)CC2)ccc1[N+](=O)[O-]` [Example 519], under setting [1], the minimal effective concentration is less than 7 µM. For `CC(C)COc1cc(OC2CCN(C(=O)CCN3CCN(c4ccc(F)cc4F)CC3)CC2)ccc1[N+](=O)[O-]` [Example 520], under setting [1], the minimal effective concentration is less than 7 µM. Take `CC(C)(C)c1ccc(N2CCN(CCC(=O)N3CCC(Nc4ccc([N+](=O)[O-])nc4)CC3)CC2)cc1` [Example 550]: the minimal effective concentration under setting [2] is less than 1 µM. In the case of `CC(C)(C)c1ccc(N2CCN(CCC(=O)N3CCC(Nc4ccc([N+](=O)[O-])cn4)CC3)CC2)cc1` [Example 551], the minimal effective concentration reads like this: under setting [2], less than 1 µM; under setting [3], less than 1 µM. Consider `O=C(CCCN1CCN(c2ccc(Cl)cc2)CC1)N1CCC(Nc2ccc([N+](=O)[O-])cn2)CC1` [Example 559], for which the minimal effective concentration under setting [3] is less than 1 µM. The same measure, in the same setting: as for `Cc1cc(NC2CCN(C(=O)CCN3CCN(C(=O)c4cccc(C(F)(F)F)c4)CC3)CC2)ccc1[N+](=O)[O-]` [Example 561], the figure is less than 1 µM.

Turning to `CCOc1cc(OC2CCN(C(=O)CCN3CCN(c4ccc(-c5ccccc5)cc4)CC3)CC2)ccc1[N+](=O)[O-]` [Example 578], the minimal effective concentration under setting [3] was less than 1 µM. On the same count and under the same terms, as for `CC(C)(CN1CCN(c2ccc(C(F)(F)F)cc2)CC1)C(=O)N1CCC(Nc2ccc([N+](=O)[O-])c(C(F)(F)F)c2)CC1` [Example 585], the figure is less than 1 µM; as for `CC(N1CCN(c2ccc(Cl)cc2)CC1)C(C)(C)C(=O)N1CCC(Nc2ccc([N+](=O)[O-])c(C(F)(F)F)c2)CC1` (stereo not drawn) [Example 586], less than 1 µM. As for `CC(C(=O)N1CCC(Nc2ccc([N+](=O)[O-])c(C(F)(F)F)c2)CC1)C(C)N1CCN(c2ccc(C(C)(C)C)cc2)CC1` (stereo not drawn) [Example 588], under setting [4], the minimal effective concentration was less than 1 µM. In the case of `CC(C)(C)c1ccc(N2CCN(CCCC(=O)N3CCC(Nc4ccnc(C(F)(F)F)c4)CC3)CC2)cc1` [Example 591], the minimal effective concentration under setting [3] is less than 1 µM. On to `O=C(CCN1CCN(c2cccc(Cl)c2)CC1)NC1CCN(c2ccc([N+](=O)[O-])c(C(F)(F)F)c2)CC1` [Example 594], for which the minimal effective concentration under setting [2] is less than 1 µM. `O=C(CCN1CCN(c2ccc(C(F)(F)F)cc2)CC1)NC1CCN(c2ccc([N+](=O)[O-])c(C(F)(F)F)c2)CC1` [Example 596]: the minimal effective concentration under setting [2] is less than 1 µM. In the case of `N#Cc1ccc(N2CCC(NC(=O)CCN3CCN(c4cccc(Cl)c4)CC3)CC2)cc1C(F)(F)F` [Example 609], the minimal effective concentration under setting [2] was less than 1 µM.

In the case of `N#Cc1ccc(N2CCC(NC(=O)CCN3CCN(c4ccc(C(F)(F)F)cc4)CC3)CC2)cc1C(F)(F)F` [Example 611], the minimal effective concentration (read-out: MEC (minimum effective concentration) against one or more of the tested nematodes, in vitro, one or more of A. galli L3, O. dentatum L3, L4, threshold 1 μM) was less than 1 µM. Regarding `N#Cc1ccc(N2CCC(NC(=O)CCCN3CCN(c4cccc(Cl)c4)CC3)CC2)cc1C(F)(F)F` [Example 617], the minimal effective concentration under setting [3] was less than 1 µM.

For the compound `N#Cc1ccc(N2CCC(NC(=O)CCCN3CCN(c4ccc(C(F)(F)F)cc4)CC3)CC2)cc1C(F)(F)F` [Example 619], the minimal effective concentration under setting [4] is less than 1 µM. Take `O=C(CCN1CCN(c2cccc(Cl)c2)CC1)NC1CCN(c2ccc(C(F)(F)F)cn2)CC1` [Example 640]: under setting [2], the minimal effective concentration was less than 1 µM. For the compound `O=C(CCCN1CCN(c2cccc(Cl)c2)CC1)NC1CCN(c2ccc(C(F)(F)F)cn2)CC1` [Example 648], the minimal effective concentration under setting [2] is less than 1 µM.

Take `CC(CN1CCN(c2ccc(C(F)(F)F)cc2)CC1)C(=O)N1CCC(Nc2ccc(SC(F)(F)F)cc2)CC1` (stereo not drawn) [Example 661]: the minimal effective concentration under setting [4] is less than 1 µM.
